Results: patent publication US20100196287A1, “Compositions Comprising Perhydrolases and Alkylene Glycol Diacetates” (priority 2007, published 2010)

Columns and labels:
[1] = Washing test on stained fabric with perhydrolase and substrate, tea stain; conditions: 50 mM substrate, 60 min., 40° C.; in comparison with methyl acetate; FIG. 1
Experimental: (§1) • blueberry juice on cotton: product no. C15 from CFT B. V. Vlaardingen, Holland • tea on cotton: product no. 167, Eidgenössische Material- and Prüfanstalt (EMPA) Testmaterialien AG, St. Gallen, Switzerland
(§2) After incubation, the stains were washed three times (3×), dried and fixed. Intensity was measured with a colorimeter Cm508d (Minolta). For this test, round pieces of the test fabric (diameter 10 mm) were incubated in 1 ml alkaline solution in a 24 well microtitration plate. Each test was carried out as a triple determination against a triply determined control. After washing, the degree of whiteness of the washed fabrics was measured in comparison with a whiteness standard (d/8, Ø 8 mm, SCl/SCE), which had been set at 100% (L-value determination). The measurement was made using a colorimeter (Minolta Cm508d) with a light setting of 10°/D65. The results were expressed as percent power, wherein the difference of the reflectance value of the base washing agent without enzymes but with substrate was normalized to 100% (with the comparison substrate methyl acetate).

[2] = Washing test on stained fabric with perhydrolase and substrate, blueberry stain; conditions: 50 mM substrate, 60 min., 40° C.; in comparison with methyl acetate; FIG. 1
Experimental: as §1, §2

[3] = Water solubility (statement); assay type: physicochemical; conditions: in contrast to methyl acetate
Toxicity (statement) = conditions: in contrast to methyl acetate

Row | Structure (SMILES) | washing power for tea stains [1] | washing power for blueberry stains [2] | water solubility [3] | toxicity (Toxicity (statement))
1 | CC(=O)OCC(C)OC(C)=O (stereo not shown) [Propylene glycol diacetate] | comparable | comparable | highly water-soluble | non-toxic
2 | CC(=O)OCCOC(C)=O [Ethylene glycol diacetate] | significantly better | comparable |  | non-toxic
